The text below walks through data of PubChem BioAssay AID1919001 (Molecular Pharmacology Branch, DTP, NCI, 2023).

The test system of this test is 699152-130-R-J1-PDC complex spheroid growth. Nature of the test: Anticancer human tumor 699152-130-R-J1-PDC patient-derived pancreatic carcinoma cell line growth inhibition [AhR]. The conditions noted are these: for viability, T/C: stronger effect = lower value. Put shortly: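 Complex tumor spheroids co-cultured with HUVEC and human MSC stroma; AhR antagonists tested in combination with standard-of-care and investigational agents. Top concentration at or near clinical Cmax (else 10 microM), half-log dilutions; growth expressed as percent test/control.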

Several values for one entry are separate records, joined by “and”; a condition that tells them apart may be missing. Equal entries are not always repeated. Where only a bound is given, the exact number is not on record here.
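Note: compound exposure lasted 7 days after spheroids had grown for 3 days.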

As for `Nc1ncn(C2CC(O)C(CO)S2)c(=O)n1` (centres undefined) + CC(CO)NC(=O)c1cc(-c2ccc(Cl)cc2)nn(-c2cnn(C)c2)c1=O, the IC50 was over 300 nM (curve of first compound, second compound 0.1 µM); over 300 nM (curve of first compound, second compound 0.316 µM); over 300 nM (curve of first compound, second compound 1 µM); over 300 nM (curve of first compound, second compound 3.16 µM); over 300 nM (curve of first compound, second compound 10 µM). For the same compound, the viability, T/C is 98% (second compound 0.1 µM, first compound 0.000949 µM); 104% (second compound 0.1 µM, first compound 0.003 µM); 85.7% (second compound 0.1 µM, first compound 0.00949 µM); 103% (second compound 0.1 µM, first compound 0.03 µM); 97.8% (second compound 0.1 µM, first compound 0.0949 µM); 94.2% (second compound 0.1 µM, first compound 0.3 µM). Also, the viability, T/C is 89.6% (second compound 0.316 µM, first compound 0.000949 µM); 111% (second compound 0.316 µM, first compound 0.003 µM); 105% (second compound 0.316 µM, first compound 0.00949 µM); 93.1% (second compound 0.316 µM, first compound 0.03 µM); 93.8% (second compound 0.316 µM, first compound 0.0949 µM); 87.1% (second compound 0.316 µM, first compound 0.3 µM). The viability, T/C (second compound 1 µM, first compound 0.000949 µM) was 93.8%; the viability, T/C (second compound 1 µM, first compound 0.003 µM) was 101%; the viability, T/C (second compound 1 µM, first compound 0.00949 µM) was 89.1%; the viability, T/C (second compound 1 µM, first compound 0.03 µM) is 95.3%; the viability, T/C (second compound 1 µM, first compound 0.0949 µM) was 94.1%; the viability, T/C (second compound 1 µM, first compound 0.3 µM) is 86.1%. In addition, the viability, T/C (second compound 3.16 µM, first compound 0.000949 µM) is 86.3%; the viability, T/C (second compound 3.16 µM, first compound 0.003 µM) was 88%; the viability, T/C (second compound 3.16 µM, first compound 0.00949 µM) was 91.8%; the viability, T/C (second compound 3.16 µM, first compound 0.03 µM) is 88.9%; the viability, T/C (second compound 3.16 µM, first compound 0.0949 µM) is 90.1%; the viability, T/C (second compound 3.16 µM, first compound 0.3 µM) is 85%. Also, the viability, T/C is, setting by setting: (second compound 10 µM, first compound 0.000949 µM) 80.7%; (second compound 10 µM, first compound 0.003 µM) 91.8%; (second compound 10 µM, first compound 0.00949 µM) 84.6%; (second compound 10 µM, first compound 0.03 µM) 87.2%; (second compound 10 µM, first compound 0.0949 µM) 87%; (second compound 10 µM, first compound 0.3 µM) 86%.
Take `CC(CO)NC(=O)c1cc(-c2ccc(Cl)cc2)nn(-c2cnn(C)c2)c1=O` (centres undefined): under “compound 0.1 µM”, the viability, T/C was 92.1% [middle of 21 runs]. Further, the half-inhibitory concentration (IC50) (compound alone, run of 07/12/2022) is over 10000 nM.
`O=C(C=Cc1cccc(S(=O)(=O)Nc2ccccc2)c1)NO`: the viability, T/C was 107% and 91.2% and 102% (compound 0.0316 µM); 114% and 101% and 110% (compound 0.1 µM); 106% and 114% and 116% (compound 0.316 µM); 106% and 116% and 112% (compound 1 µM); 106% and 107% and 116% (compound 3.16 µM); 86.2% and 96.8% and 77.4% (compound 10 µM). Further, for the setting “curve of compound”, the IC50 is over 10000 nM.
